Bounds are passed on as bounds.

The target of one test is T1, human CYP11B2 (Homo sapiens, UniProt P19099).
T1 construct: expressed in transfected cells
T1 sequence (P19099 25-503): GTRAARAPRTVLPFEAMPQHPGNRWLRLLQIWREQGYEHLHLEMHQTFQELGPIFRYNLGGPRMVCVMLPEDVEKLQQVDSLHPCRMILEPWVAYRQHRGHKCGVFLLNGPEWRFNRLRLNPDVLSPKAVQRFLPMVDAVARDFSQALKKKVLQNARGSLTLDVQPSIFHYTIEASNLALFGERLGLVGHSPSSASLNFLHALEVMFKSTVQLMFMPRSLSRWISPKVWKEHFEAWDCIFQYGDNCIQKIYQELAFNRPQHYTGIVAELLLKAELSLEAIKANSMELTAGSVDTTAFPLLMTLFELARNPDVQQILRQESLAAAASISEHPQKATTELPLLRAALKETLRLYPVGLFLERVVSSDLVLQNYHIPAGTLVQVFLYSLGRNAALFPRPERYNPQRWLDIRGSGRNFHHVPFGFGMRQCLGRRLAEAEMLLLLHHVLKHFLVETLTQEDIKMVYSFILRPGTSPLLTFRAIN
Description: Inhibition of hCYP11B2 in transfected V79 cells. In kind it is cell-based. Particulars: hamster V79 cells expressing human CYP11B2; substrate 11-deoxycorticosterone 200 nM. An outline of the steps: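 Hamster V79 cells stably co-expressing human CYP11B2 and rat NADPH-P450 reductase were pre-incubated with compounds for 2 hours, then given 200 nM 11-deoxycorticosterone for 30 minutes before ethyl acetate quench. Substrate and product were quantified by LC-MS/MS or HPLC at 260 nm, and IC50 was derived from percent inhibition.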

The next test concerns the target T2, human CYP11B1 (Homo sapiens, UniProt P15538).
T2 construct: expressed in transfected cells
T2 sequence (P15538 25-503): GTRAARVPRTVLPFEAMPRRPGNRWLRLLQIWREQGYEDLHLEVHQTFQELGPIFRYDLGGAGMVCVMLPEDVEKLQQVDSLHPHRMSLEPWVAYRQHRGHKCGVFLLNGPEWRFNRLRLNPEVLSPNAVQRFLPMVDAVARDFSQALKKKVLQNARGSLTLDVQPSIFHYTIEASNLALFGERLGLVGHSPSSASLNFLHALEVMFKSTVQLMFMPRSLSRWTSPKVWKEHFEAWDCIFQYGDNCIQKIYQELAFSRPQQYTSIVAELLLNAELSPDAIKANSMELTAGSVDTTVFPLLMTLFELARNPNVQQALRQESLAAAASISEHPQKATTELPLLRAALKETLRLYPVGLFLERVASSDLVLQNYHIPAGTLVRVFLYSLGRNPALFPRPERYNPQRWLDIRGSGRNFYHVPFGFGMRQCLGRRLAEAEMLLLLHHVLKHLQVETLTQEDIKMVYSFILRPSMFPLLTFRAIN
Description: Inhibition of hCYP11B1 in transfected V79 cells. In kind it is cell-based. Particulars: hamster V79 cells expressing human CYP11B1; substrate 11-deoxycortisol 200 nM. An outline of the steps: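 V79 hamster cells stably expressing human CYP11B1 and rat NADPH-P450 reductase were preincubated with compounds for 2 h. 11-Deoxycortisol (200 nM) was then added as substrate for 30 min before ethyl acetate quench. Substrate and product were quantified by LC-MS/MS or HPLC at 260 nm, and IC50 was derived from percent inhibition.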

As for `COc1ccc(CN2CC(S(=O)(=O)N3CCOc4c(-c5ccc(C#N)cc5)cncc43)C2)cc1` [O125, 4-(4-((1-(4-Methoxybenzyl)azetidin-3-yl)sulfonyl)-3,4-dihydro-2H-pyrido[4,3-b][1,4]oxazin-8-yl)benzonitrile], the concentration for half-maximal inhibition (IC50) on human CYP11B2 is 0.5 nM; at human CYP11B1 it was 28 nM.

Take `N#Cc1ccc(-c2cncc3c2OCCN3S(=O)(=O)C2CN(c3cccc(F)c3)C2)cc1` [O126, 4-(4-((1-(3-Fluorophenyl)azetidin-3-yl)sulfonyl)-3,4-dihydro-2H-pyrido[4,3-b][1,4]oxazin-8-yl)benzonitrile]: the IC50 on human CYP11B2 came out at 3 nM; against human CYP11B1, 126 nM.

Consider `N#Cc1ccc(-c2cncc3c2OCCN3S(=O)(=O)C2CN(c3ccc(F)cc3)C2)cc1` [O127, 4-(4-((1-(4-Fluorophenyl)azetidin-3-yl)sulfonyl)-3,4-dihydro-2H-pyrido[4,3-b][1,4]oxazin-8-yl)benzonitrile], for which the IC50 at human CYP11B2 came out at 2.3 nM; against human CYP11B1, 197 nM.

On to `N#Cc1ccc(S(=O)(=O)N2CCOc3c(-c4cc5cc(Cl)ccc5o4)cncc32)cc1` [O128, 4-((8-(5-Chlorobenzofuran-2-yl)-2,3-dihydro-4H-pyrido[4,3-b][1,4]oxazin-4-yl)sulfonyl)benzonitrile], for which the IC50 against human CYP11B2 was found to be 3.3 nM; at human CYP11B1, 256 nM.

As for `N#Cc1ccc(S(=O)(=O)N2CCOc3c(-c4cc5cc(C#N)ccc5o4)cncc32)cc1` [O129, 2-(4-((4-Cyanophenyl)sulfonyl)-3,4-dihydro-2H-pyrido[4,3-b][1,4]oxazin-8-yl)benzofuran-5-carbonitril], the IC50 was 1.9 nM against human CYP11B2 and 243 nM on human CYP11B1.

As to `N#Cc1ccc(-c2cncc3c2OCCN3S(=O)(=O)c2ccc(C#N)cc2)cc1` [O130, 4-((8-(4-Cyanophenyl)-2,3-dihydro-4H-pyrido[4,3-b][1,4]oxazin-4-yl)sulfonyl)benzonitrile], the IC50 on human CYP11B2 stood at 5 nM; against human CYP11B1 it was 97 nM.

Turning to `N#Cc1ccc(S(=O)(=O)N2CCOc3c(-c4ccc5ncoc5c4)cncc32)cc1` [O131, 4-((8-(Benzo[d]oxazol-6-yl)-2,3-dihydro-4H-pyrido[4,3-b][1,4]oxazin-4-yl)sulfonyl)benzonitrile], the half-inhibitory concentration (IC50) against human CYP11B2 stood at 3.3 nM; against human CYP11B1, 248 nM.

Take `N#Cc1ccc(S(=O)(=O)N2CCOc3c(-c4ccc5c(c4)NC(=O)C5)cncc32)cc1` [O132, 4-((8-(2-Oxoindolin-6-yl)-2,3-dihydro-4H-pyrido[4,3-b][1,4]oxazin-4-yl)sulfonyl)benzonitrile]: the values for the IC50 at human CYP11B2 and on human CYP11B1 were 5.4 nM and 168 nM, respectively.

In the case of `N#CC12CC(c3cncc4c3OCCN4C(=O)C3CN(Cc4cccc(F)c4)C3)(C1)C2` [O133, 3-(4-(1-(3-Fluorobenzyl)azetidine-3-carbonyl)-3,4-dihydro-2H-pyrido[4,3-b][1,4]oxazin-8-yl)bicyclo[1.1.1]pentane-1-carbonitrile], the results for the IC50 on human CYP11B2 and on human CYP11B1 were 55 nM and 4220 nM, respectively.

`N#CN1CC2(C1)CN(c1cncc3c1OCCN3C(=O)C1CN(Cc3cccc(F)c3)C1)C2` [O134, 6-(4-(1-(3-Fluorobenzyl)azetidine-3-carbonyl)-3,4-dihydro-2H-pyrido[4,3-b][1,4]oxazin-8-yl)-2,6-diazaspiro[3.3]heptane-2-carbonitrile]: the IC50 stood at 52 nM on human CYP11B2 and 3580 nM against human CYP11B1.

Consider `O=C(C1CN(Cc2cccc(F)c2)C1)N1CCOc2c(N3CCn4cnnc4C3)cncc21` [O135, (8-(5,6-Dihydro-[1,2,4]triazolo[4,3-a]pyrazin-7 (8H)-yl)-2,3-dihydro-4H-pyrido[4,3-b][1,4]oxazin-4-yl)(1-(3-fluorobenzyl)azetidin-3-yl)methanone], for which the figures for the IC50 against human CYP11B2 and at human CYP11B1 were 66 nM and 4130 nM, respectively.

With `N#Cc1ccc(-c2cncc3c2OCCN3C(=O)N2CC(Cc3cccc(F)c3)C2)cc1` [O136, 4-(4-(3-(3-Fluorobenzyl)azetidine-1-carbonyl)-3,4-dihydro-2H-pyrido[4,3-b][1,4]oxazin-8-yl)benzonitrile], the IC50 at human CYP11B2 was found to be 22 nM; on human CYP11B1, 2020 nM.

For `O=C(C1CN(Cc2cccc(F)c2)C1)N1CCOc2c(N3CCn4ccnc4C3)cncc21` [O137, (8-(5,6-Dihydroimidazo[1,2-a]pyrazin-7 (8H)-yl)-2,3-dihydro-4H-pyrido[4,3-b][1,4]oxazin-4-yl)(1-(3-fluorobenzyl)azetidin-3-yl)methanone], the IC50 against human CYP11B2 amounted to 57 nM; against human CYP11B1 it was 3960 nM.

Take `N#Cc1ccc(-c2cncc3c2SCCN3Cc2cccc(F)c2)cc1` [S1, 4-(4-(3-Fluorobenzyl)-3,4-dihydro-2H-pyrido[4,3-b][1,4]thiazin-8-yl)benzonitrile]: the IC50 on human CYP11B2 is 451 nM; on human CYP11B1, more than 5000 nM.

For the compound `N#Cc1ccc(-c2cncc3c2SCCN3Cc2ccc(F)cc2)cc1` [S2, 4-(4-(4-Fluorobenzyl)-3,4-dihydro-2H-pyrido[4,3-b][1,4]thiazin-8-yl)benzonitrile], the IC50 against human CYP11B2 is 473 nM; against human CYP11B1 it was more than 5000 nM.

On to `N#Cc1ccc(-c2cncc3c2SCCN3Cc2cccc([N+](=O)[O-])c2)cc1` [S3, 4-(4-(3-Nitrobenzyl)-3,4-dihydro-2H-pyrido[4,3-b][1,4]thiazin-8-yl)benzonitrile], for which the values for the IC50 against human CYP11B2 and on human CYP11B1 were 243 nM and more than 5000 nM, respectively.

In the case of `N#Cc1ccc(-c2cncc3c2SCCN3C(=O)c2cccc(F)c2)cc1` [S4, 4-(4-(3-Fluorobenzoyl)-3,4-dihydro-2H-pyrido[4,3-b][1,4]thiazin-8-yl)benzonitrile], the IC50 at human CYP11B2 came out at 34.8 nM; on human CYP11B1, 1370 nM.

Take `N#Cc1ccc(-c2cncc3c2SCCN3C(=O)c2ccc(F)cc2)cc1` [S5, 4-(4-(4-Fluorobenzoyl)-3,4-dihydro-2H-pyrido[4,3-b][1,4]thiazin-8-yl)benzonitrile]: the IC50 at human CYP11B2 stood at 21 nM; against human CYP11B1 it was 2980 nM.

Regarding `COc1ccc(C(=O)N2CCSc3c(-c4ccc(C#N)cc4)cncc32)cc1` [S6, 4-(4-(4-Methoxybenzoyl)-3,4-dihydro-2H-pyrido[4,3-b][1,4]thiazin-8-yl)benzonitrile], the IC50 on human CYP11B2 came out at 53 nM; against human CYP11B1, 1740 nM.

As for `N#Cc1ccc(-c2cncc3c2SCCN3C(=O)c2cccnc2)cc1` [S7, 4-(4-Nicotinoyl-3,4-dihydro-2H-pyrido[4,3-b][1,4]thiazin-8-yl)benzonitrile], the IC50 at human CYP11B2 amounted to 88 nM; against human CYP11B1, 4390 nM.

Consider `N#Cc1ccc(-c2cncc3c2SCCN3S(=O)(=O)c2ccccc2)cc1` [S8, 4-(4-(Phenylsulfonyl)-3,4-dihydro-2H-pyrido[4,3-b][1,4]thiazin-8-yl)benzonitrile], for which the IC50 stood at 0.1 nM on human CYP11B2 and 1.5 nM against human CYP11B1.

For the compound `N#Cc1ccc(-c2cncc3c2SCCN3S(=O)(=O)c2cccc(F)c2)cc1` [S9, 4-(4-((3-Fluorophenyl)sulfonyl)-3,4-dihydro-2H-pyrido[4,3-b][1,4]thiazin-8-yl)benzonitrile], the IC50 came out at 0.2 nM at human CYP11B2 and 0.7 nM at human CYP11B1.

For the compound `N#Cc1ccc(-c2cncc3c2SCCN3S(=O)(=O)c2ccc(F)cc2)cc1` [S10, 4-(4-((4-Fluorophenyl)sulfonyl)-3,4-dihydro-2H-pyrido[4,3-b][1,4]thiazin-8-yl)benzonitrile], the IC50 was 0.1 nM on human CYP11B2 and 0.8 nM against human CYP11B1.

In the case of `Cc1cccc(S(=O)(=O)N2CCSc3c(-c4ccc(C#N)cc4)cncc32)c1` [S11, 4-(4-(m-Tolylsulfonyl)-3,4-dihydro-2H-pyrido[4,3-b][1,4]thiazin-8-yl)benzonitrile], the IC50 against human CYP11B2 turned out to be 0.15 nM; on human CYP11B1, 2.1 nM.

Turning to `Cc1ccc(S(=O)(=O)N2CCSc3c(-c4ccc(C#N)cc4)cncc32)cc1` [S12, 4-(4-Tosyl-3,4-dihydro-2H-pyrido[4,3-b][1,4]thiazin-8-yl)benzonitrile], the figures for the concentration for half-maximal inhibition (IC50) on human CYP11B2 and at human CYP11B1 were 0.18 nM and 2.8 nM, respectively.

For the compound `COc1ccc(S(=O)(=O)N2CCSc3c(-c4ccc(C#N)cc4)cncc32)cc1` [S13, 4-(4-((4-Methoxyphenyl)sulfonyl)-3,4-dihydro-2H-pyrido[4,3-b][1,4]thiazin-8-yl)benzonitrile], the IC50 was 0.1 nM at human CYP11B2 and 1.2 nM against human CYP11B1.

By IC50 is commonly meant the concentration that gives 50% inhibition. A higher IC50 goes with a need for much substance.

These data come from patent US20260092074A1, “Annelated Pyridines as Steroidogenesis Inhibitors, Preparation Method and Use Thereof” (Guangzhou Vinnocent Pharmaceutical Limited, priority 2022, published 2026).
